The results in this text go back to patent US20240158368A1, “Pyrrolidine Main Protease Inhibitors as Antiviral Agents” (AbbVie Inc., priority 2022, published 2024).

Series [1] concerns the target SARS-CoV-2 Mpro (Severe acute respiratory syndrome coronavirus 2 (2019-nCoV) (SARS-CoV-2), UniProt P0DTD1). Format: biochemical.
Series [2] in a line: in vitro. The settings on record: PAMPA. For orientation: The PAMPA barrier holds no transporters, so it reflects passive diffusion.
Series [3] in a line: in vitro. To be noted: human, microsomes, pH 7.4.
Series [4] addresses MERS Mpro (Middle East respiratory syndrome-related coronavirus (isolate United Kingdom/H123990006/2012) (MERS-CoV) (Betacoronavirus England 1), UniProt K9N7C7). Put plainly: biochemical.
In series [5] the test system is SARS-CoV-2 (strain USA-WA1/2020). Put plainly: microbe, parasite or virus in culture. Format: cell-based.
The test system of series [6] is OC43 virus. The series can be described thus: microbe, parasite or virus in culture. It counts as cell-based. To be noted: Betacoronavirus 1, OC43, Huh-7, read-out: Antiviral OC43 EC50 (μM).
A short description of series [7]: in vitro. The settings on record: rat, microsomes, pH 7.4.
The target in series [8] is 229E Mpro (Human coronavirus 229E (HCoV-229E), UniProt P0C6X1). Format: biochemical.
Series [9] has as its target OC43 Mpro (Human coronavirus OC43 (HCoV-OC43), UniProt P0C6X6). It counts as biochemical.
The test system of series [10] is 229E virus. The series can be described thus: organism not typed. Format: cell-based. The settings on record: Huh-7, read-out: Antiviral 229E EC50 (μM).
The target in series [11] is SARS-CoV-1 Mpro (Severe acute respiratory syndrome coronavirus (SARS-CoV), UniProt P0C6X7). Format: biochemical.
The mark [12] stands for this setting: Severe acute respiratory syndrome coronavirus 2, HeLa-ACE2 cells, read-out: Antiviral CoV-2 EC50.

Like-named read-outs stand apart in the source and are kept apart here.

OC43 Mpro, sequence (P0C6X6 3247-3549 limits assumed): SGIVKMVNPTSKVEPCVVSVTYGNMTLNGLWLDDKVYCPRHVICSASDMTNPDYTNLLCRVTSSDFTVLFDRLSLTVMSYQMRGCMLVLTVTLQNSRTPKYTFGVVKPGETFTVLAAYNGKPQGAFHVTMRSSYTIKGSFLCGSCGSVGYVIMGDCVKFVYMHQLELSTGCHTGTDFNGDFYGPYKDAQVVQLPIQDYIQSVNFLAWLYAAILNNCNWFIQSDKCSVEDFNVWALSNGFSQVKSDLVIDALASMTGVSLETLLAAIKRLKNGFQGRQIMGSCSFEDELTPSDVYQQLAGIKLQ
229E Mpro, sequence (P0C6X1 2966-3267 limits assumed): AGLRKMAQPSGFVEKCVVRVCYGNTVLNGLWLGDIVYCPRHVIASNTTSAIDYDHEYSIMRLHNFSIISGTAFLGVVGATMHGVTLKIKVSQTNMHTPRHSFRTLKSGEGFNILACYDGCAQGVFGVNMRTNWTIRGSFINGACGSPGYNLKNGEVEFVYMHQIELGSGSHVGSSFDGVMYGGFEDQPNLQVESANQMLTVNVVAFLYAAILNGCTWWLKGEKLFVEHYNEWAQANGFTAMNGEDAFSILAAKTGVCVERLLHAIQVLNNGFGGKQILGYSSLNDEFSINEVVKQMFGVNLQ
MERS Mpro, sequence (K9N7C7 3248-3553 limits assumed): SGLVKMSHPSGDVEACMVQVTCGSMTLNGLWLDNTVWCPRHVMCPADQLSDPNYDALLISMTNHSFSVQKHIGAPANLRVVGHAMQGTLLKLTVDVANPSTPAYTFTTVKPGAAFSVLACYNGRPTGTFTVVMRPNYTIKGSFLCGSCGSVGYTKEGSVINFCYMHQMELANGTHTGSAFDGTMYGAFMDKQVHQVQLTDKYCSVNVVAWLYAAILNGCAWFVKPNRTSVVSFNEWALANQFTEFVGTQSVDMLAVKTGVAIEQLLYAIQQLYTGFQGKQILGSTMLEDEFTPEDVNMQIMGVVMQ

In general, EC50 refers to the concentration needed to bring the measured effect to its halfway point. What is called Papp is a coefficient for how fast a substance crosses the barrier. Lower therefore signals poor permeation. As usually defined, the CLint scaled is the rate of metabolic loss divided by the concentration. A lower CLint scaled goes with slow turnover. Regarding `COc1cccc2[nH]c(=O)cc(C(=O)N[C@@H]3CCN(c4c(C5CC5)ccc(F)c4C(=O)N4CCOCC4)C3)c12` [Compound 78], the EC50 is 1.42 nM in series [1]; 2.31 nM in series [4]; 0.46 µM in series [5] (setting [12]); 0.0978 µM in series [6]; 1.99 nM in series [8]; 1.45 nM in series [9]. For the same molecule, the EC50 in [10] came out at 0.0481 µM. The molecule also showed an apparent permeability coefficient (Papp) in [2] of 2.46 ×10⁻⁶ cm/s. The CLint scaled in [3] is 188 mL/min/kg; in series [7], 418 mL/min/kg.
Consider `Cc1cc(C(=O)N2CCOCC2)c(N2CC[C@@H](NC(=O)c3cc(=O)[nH]c4c(F)cccc34)C2)c(C2CC2)c1` [Compound 45], for which the concentration giving a half-maximal response (EC50) is 0.42 nM in [1]; 0.7 nM in series [4]; 0.0186 µM in [5] (setting [12]); below 0.03 µM in [6]; 1.52 nM in series [8]; 0.51 nM in series [9]. Also, the concentration giving a half-maximal response (EC50) in series [10] came out at 0.0561 µM. Besides, the Papp in series [2] was found to be 14.7 ×10⁻⁶ cm/s. Moreover, the CLint scaled in series [3] was 352 mL/min/kg; in series [7], 942 mL/min/kg.
Regarding `COc1cccc2[nH]c(=O)cc(C(=O)N[C@@H]3CCN(c4c(C(=O)N5CCOCC5)cc(F)cc4C4CC4)C3)c12` [Compound 79], the EC50 in series [1] amounted to 0.42 nM; in series [4] it was 1.51 nM; in series [5] (setting [12]), 0.0385 µM; in series [6], 0.02 µM; in series [8], 2.42 nM; in series [9] it was 0.76 nM. The concentration giving a half-maximal response (EC50) in series [10] was found to be 0.0284 µM. This molecule had a Papp in series [2] of 2.98 ×10⁻⁶ cm/s. The figures for the CLint scaled in [3] and in [7] were 31.7 mL/min/kg and 235 mL/min/kg, respectively.
Consider `O=C(N[C@@H]1CCN(c2c(C(=O)N3CCOCC3)cc(Br)cc2C(F)(F)F)C1)c1cc(=O)[nH]c2c(Cl)cccc12` [Compound 58], for which the EC50 in series [1] is 0.42 nM; in series [4], 0.91 nM; in series [11] it was 1.07 nM; in series [6], 0.864 µM; in series [8], 24.5 nM; in [9] it was 5.84 nM. Further, the EC50 in series [10] was 0.983 µM. In addition, in series [2], the apparent permeability coefficient (Papp) is 17.9 ×10⁻⁶ cm/s. Further, the CLint scaled is 365 mL/min/kg in series [3] and 1000 mL/min/kg in series [7].
As for `O=C(N[C@@H]1CCN(c2c(C(=O)N3CCOCC3)cc(F)cc2C2CC2)C1)c1cc(=O)[nH]c2c(F)cccc12` [Compound 46], the EC50 in series [1] came to 0.47 nM; in [4], 1.75 nM; in series [5] (setting [12]), 0.0209 µM; in [6], 0.049 µM; in series [8] it was 2.76 nM; in [9], 0.81 nM. The EC50 in series [10] was determined as 0.073 µM. In addition, the Papp in [2] came to 15.2 ×10⁻⁶ cm/s. The results for the CLint scaled in [3] and in [7] were 53.3 mL/min/kg and 897 mL/min/kg, respectively.
On to `Cc1cc(C(=O)N[C@@H]2CCN(c3c(C(=O)N4CCOCC4)cc(Br)cc3C(F)(F)F)C2)c(F)c(=O)[nH]1` [Compound 3, (R)—N-(1-(4-bromo-2-(morpholine-4-carbonyl)-6-(trifluoromethyl)phenyl)pyrrolidin-3-yl)-3-fluoro-6-methyl-2-oxo-1,2-dihydropyridine-4-carboxamide], for which the EC50 in series [1] turned out to be 0.63 nM; in series [4], 1.23 nM; in series [5] (setting [12]), 0.0203 µM; in series [11] it was 0.97 nM; in series [8], 12.9 nM; in series [9], 3.88 nM. Further, the Papp in series [2] worked out at 5.84 ×10⁻⁶ cm/s. Besides, the CLint scaled in series [3] is below 36.7 mL/min/kg; in series [7], below 60 mL/min/kg.
As for `COc1cccc2[nH]c(=O)cc(C(=O)N[C@@H]3CCN(c4c(C(=O)N5CCOCC5)cc(Cl)nc4C4CC4)C3)c12` [Compound 82], the EC50 in [1] came out at 0.99 nM; in series [4], 2.91 nM; in series [5] (setting [12]), 0.241 µM; in series [6], 0.083 µM; in [8], 13.5 nM; in [9], 1.61 nM. Moreover, the EC50 in [10] was determined as 1.17 µM. The Papp in series [2] is 3.1 ×10⁻⁶ cm/s. For the same molecule, the figures for the CLint scaled in series [3] and in series [7] were 56.7 mL/min/kg and 51.7 mL/min/kg, respectively.
On to `O=C(N[C@@H]1CCN(c2c(C(=O)N3CCOCC3)cc(Cl)cc2C(F)(F)F)C1)c1c(F)c(=O)[nH]c2c(F)cccc12` [Compound 55], for which the EC50 in series [1] turned out to be 0.42 nM; in [4] it was 0.84 nM; in [5] (setting [12]), 0.0046 µM; in series [11], 0.56 nM; in series [8] it was 1.74 nM; in [9], 0.42 nM. In series [2], the Papp came to 18.6 ×10⁻⁶ cm/s. Further, the intrinsic metabolic clearance (CLint scaled) in series [3] is 157 mL/min/kg; in [7], 318 mL/min/kg.
In the case of `C[C@@H]1C[C@@H](NC(=O)c2cc(=O)[nH]c3c(F)cccc23)CN1c1c(C(=O)N2CCOCC2)cc(C#N)cc1C(F)(F)F` [Compound 30], the EC50 in series [1] came out at 0.42 nM; in series [4], 1.04 nM; in series [6], 0.029 µM; in [8] it was 1.25 nM; in series [9], 0.58 nM; in [10] it was 0.011 µM. This molecule also had a Papp in series [2] of 13.3 ×10⁻⁶ cm/s. Besides, the CLint scaled in series [3] is 61.7 mL/min/kg; in series [7] it was 303 mL/min/kg.
Regarding `CN1CCN(C(=O)c2cc(Br)cc(C(F)(F)F)c2N2CC[C@@H](NC(=O)c3cc(=O)[nH]c4c(F)cccc34)C2)CC1` [Compound 63], the EC50 in series [1] was 0.56 nM; in series [4], 1.06 nM; in series [5] (setting [12]), 0.0127 µM; in series [11], 1.27 nM; in series [8], 1.99 nM; in [9], 0.91 nM. The molecule further had an apparent permeability (Papp) in series [2] of 5.6 ×10⁻⁶ cm/s. Further, the values for the CLint scaled in series [3] and in [7] were 357 mL/min/kg and 722 mL/min/kg, respectively.
Turning to `O=C(N[C@@H]1CCN(c2c(C(=O)N3CC4CC(C3)O4)cc(Br)cc2C(F)(F)F)C1)c1cc(=O)[nH]c2c(F)cccc12` [Compound 65], the EC50 in series [1] came out at 0.42 nM; in [4] it was 1.54 nM; in [5] (Severe acute respiratory syndrome coronavirus 2, HeLa-ACE2, read-out: Antiviral CoV-2 EC50 (μM)), 0.0092 µM; in series [11], 1.86 nM; in series [8], 2.76 nM; in [9], 1.29 nM. In addition, the Papp in series [2] turned out to be 16 ×10⁻⁶ cm/s. Further, the intrinsic clearance (CLint scaled) in series [3] was 93.3 mL/min/kg; in series [7] it was 258 mL/min/kg.
For `O=C(N[C@@H]1CCN(c2c(C(=O)N3CCOCC3)cc(F)cc2C(F)(F)F)C1)c1cc(=O)[nH]c2c(F)cc(F)cc12` [Compound 38], the EC50 was 1.84 nM in [1]; 2.39 nM in series [4]; 0.327 µM in series [6]; 5.9 nM in series [8]; 9.11 nM in series [9]; 0.142 µM in series [10]. Besides, in series [2], the apparent permeability (Papp) was found to be 14.5 ×10⁻⁶ cm/s. Besides, the results for the CLint scaled in series [3] and in [7] were 173 mL/min/kg and 625 mL/min/kg, respectively.
For `COc1cc(F)cc2[nH]c(=O)cc(C(=O)N[C@@H]3CCN(c4c(C(=O)N5CCOCC5)cc(Br)cc4C(F)(F)F)C3)c12` [Compound 57], the EC50 in series [1] is 0.42 nM; in series [4], 0.53 nM; in [6], 0.095 µM; in series [8] it was 0.88 nM; in [9], 0.42 nM; in [10], 0.083 µM. The Papp in series [2] amounted to 4.09 ×10⁻⁶ cm/s. Moreover, the CLint scaled in series [3] was 125 mL/min/kg; in [7] it was 437 mL/min/kg.
As for `COc1cccc2[nH]c(=O)cc(C(=O)N[C@H]3CN(c4c(C(=O)N5CCOCC5)cc(C)cc4C4CC4)C[C@@H]3OC)c12` [Compound 84], the EC50 is 0.6 nM in [1]; 2.44 nM in [4]; 0.0351 µM in [5] (setting [12]); 0.019 µM in series [6]; 2.35 nM in series [8]; 0.64 nM in series [9]. Besides, the EC50 in [10] stood at 0.141 µM. The Papp in series [2] came out at 3.6 ×10⁻⁶ cm/s. Besides, the CLint scaled in series [3] is 120 mL/min/kg; in series [7] it was 195 mL/min/kg.
`C[C@@H]1C[C@@H](NC(=O)c2cc(=O)[nH]c3c(F)c(F)ccc23)CN1c1c(C(=O)N2CCOCC2)cc(C#N)cc1C(F)(F)F` [Compound 31]: the EC50 in series [1] amounted to 0.5 nM; in [4], 1.94 nM; in series [5] (setting [12]), 0.0088 µM; in series [6] it was 0.141 µM; in [8], 2.81 nM; in series [9] it was 1.77 nM. Moreover, the EC50 in series [10] stood at 0.073 µM. The Papp in series [2] worked out at 11.8 ×10⁻⁶ cm/s. The CLint scaled is 91.7 mL/min/kg in series [3] and 457 mL/min/kg in series [7].
As for `Cc1cc(C(=O)N2CCOCC2)c(N2C[C@H](NC(=O)c3cc(=O)[nH]c4c(F)c(F)ccc34)CC2=O)c(C2CC2)c1` [Compound 75], the EC50 in series [1] is 0.63 nM; in [4] it was 1.72 nM; in series [5] (setting [12]), 0.0231 µM; in series [11], 0.72 nM; in series [8] it was 6.11 nM; in series [9], 2.25 nM. This molecule registered an apparent permeability coefficient (Papp) in series [2] of 2.46 ×10⁻⁶ cm/s. Further, the CLint scaled is below 33.3 mL/min/kg in [3] and below 55 mL/min/kg in [7].
As for `O=C(N[C@@H]1CCN(c2c(C(=O)N3CC4(COC4)C3)cc(Br)cc2C(F)(F)F)C1)c1cc(=O)[nH]c2c(F)cccc12` [Compound 73], the EC50 in series [1] is 0.53 nM; in series [4], 1.69 nM; in [5] (setting [12]), 0.0123 µM; in series [11] it was 3.84 nM; in [8] it was 5.79 nM; in [9], 1.13 nM. Also, the Papp in series [2] is 11.7 ×10⁻⁶ cm/s. For the same molecule, the results for the intrinsic metabolic clearance (CLint scaled) in [3] and in series [7] were 117 mL/min/kg and 327 mL/min/kg, respectively.
